Experimental findings from ChEMBL document CHEMBL4342465, “Lead Optimization and Avoidance of Reactive Metabolite Leading to PCO371, a Potent, Selective, and Orally Available Human Parathyroid Hormone Receptor 1 (hPTHR1) Agonist” (J Med Chem, 2020) are described below.

Activity calls are given as the source filed them. The calls are words filed in the database; no cut-off is given here.

For orientation: EC20 means the concentration at which the effect reaches the 20% level. Read a high EC20 as a need for much substance. What is called EC50 is the concentration at which the effect is half-maximal. The AUC(0-inf) is total exposure, with the tail of the curve extrapolated. Low values mean less exposure, high ones more exposure. As usually defined, the clearance is a measure of how efficiently the substance is removed, as volume per time. Read a low clearance as a low capacity for elimination. One may read the half-life as how long it takes for the measured level to halve.

Data set [1] is described as follows: Clearance in human liver microsomes at 1 uM measured after 30 mins in presence of NADPH by LC-MS/MS analysis. It counts as ADME, Microsome. The following applies: read-out: CLH. (In general: Liver microsomes are vesicles of endoplasmic reticulum, rich in cytochrome P450 enzymes.)
Data set [2] deals with T1, Parathyroid hormone/parathyroid hormone-related peptide receptor (Homo sapiens) (UniProt Q03431).
T1 sequence (whole entry): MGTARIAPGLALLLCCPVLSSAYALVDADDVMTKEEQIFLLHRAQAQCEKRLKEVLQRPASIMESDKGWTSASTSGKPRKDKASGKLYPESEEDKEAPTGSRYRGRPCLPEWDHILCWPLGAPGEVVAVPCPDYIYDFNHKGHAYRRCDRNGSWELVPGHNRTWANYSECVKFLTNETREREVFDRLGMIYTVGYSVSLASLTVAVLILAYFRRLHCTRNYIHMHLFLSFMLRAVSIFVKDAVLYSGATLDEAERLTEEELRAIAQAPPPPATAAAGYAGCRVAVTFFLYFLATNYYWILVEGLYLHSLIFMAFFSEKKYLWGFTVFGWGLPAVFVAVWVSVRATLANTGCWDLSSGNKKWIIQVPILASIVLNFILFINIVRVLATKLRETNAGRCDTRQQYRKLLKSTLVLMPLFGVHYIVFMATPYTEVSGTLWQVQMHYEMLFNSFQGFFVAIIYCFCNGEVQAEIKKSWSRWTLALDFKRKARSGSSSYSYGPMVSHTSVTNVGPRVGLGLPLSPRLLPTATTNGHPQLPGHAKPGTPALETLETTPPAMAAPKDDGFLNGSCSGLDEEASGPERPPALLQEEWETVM
To be noted: LLC-PK1.

Data set [3] deals with T2, Parathyroid hormone/parathyroid hormone-related peptide receptor (Homo sapiens, UniProt Q03431).
T2 sequence (Q03431 whole entry): T1 sequence (whole entry)
Kind of data set: Agonist activity at recombinant human PTHR1 expressed in pig LLC-PK1 cells assessed as increase in cAMP production measured after 20 mins by EIA. It counts as functional, cell-based.

The test system of data set [4] is Rattus norvegicus. The data set is described as follows: Anti-hypoparathyroidism activity in sc dosed TPTX Crl:CD(SD) rat assessed as increase in serum calcium level measured up to 24 hrs by o-CPC method. It counts as functional, organism-based.
Data set [5] can be described thus: AUC (infinity) in rat at 2 mg/kg, iv by LC-MS/MS analysis. It counts as ADME, organism-based. More on the design: dose 2 mg/kg, route intravenous, time infinity. The following applies: in vivo.
The test system of data set [6] is Rattus norvegicus. The data set is described as follows: Anti-hypoparathyroidism activity in po dosed TPTX Crl:CD(SD) rat assessed as increase in serum calcium level measured up to 24 hrs by o-CPC method. It counts as functional, organism-based.
Data set [7] deals with Rattus norvegicus. Kind of data set: Anti-hypoparathyroidism activity in po dosed TPTX Crl:CD(SD) rat assessed as increase in serum calcium level by measuring serum calcium level at 30 mg/kg, po administered as single dose measured after 24 hrs by o-CPC method. It counts as functional.
Data set [8] deals with Rattus norvegicus. Kind of data set: Anti-hypoparathyroidism activity in po dosed TPTX Crl:CD(SD) rat assessed as time required to show minimum decrease in serum phosphate level by xanthine oxidase based method. It counts as functional.
Data set [9] in a line: Clearance in rat at 2 mg/kg, iv by LC-MS/MS analysis. The data set is classed as ADME, organism-based. To be noted: in vivo.
For data set [10], the system named is Rattus norvegicus. Kind of data set: Anti-hypoparathyroidism activity in po dosed TPTX Crl:CD(SD) rat assessed as time required to show maximum increase in serum calcium level by o-CPC method. The data set is classed as functional.
For data set [11], the system named is Rattus norvegicus. Kind of data set: Anti-hypoparathyroidism activity in po dosed TPTX Crl:CD(SD) rat assessed as decrease in serum phosphate level measured up to 24 hrs by xanthine oxidase based method. The data set is classed as functional, organism-based.
Data set [12] can be described thus: Half life in rat at 2 mg/kg, iv by LC-MS/MS analysis. The data set is classed as ADME, organism-based. The following applies: in vivo.
The nature of data set [13]: Volume of distribution at steady state in rat at 2 mg/kg, iv by LC-MS/MS analysis. The data set is classed as ADME, organism-based. The following applies: in vivo, read-out: Vdss.
Data set [14] is described as follows: Drug metabolism in human liver microsomes assessed as compound 17 formation at 1 uM measured after 30 mins in presence of NADPH by LC-MS/MS analysis. The data set is classed as ADME, Microsome. The following applies: 0.5 h.
The nature of data set [15]: Drug metabolism in human liver microsomes assessed as oxidation by measuring compound 18 formation at 1 uM measured after 30 mins in presence of NADPH by LC-MS/MS analysis. The data set is classed as ADME, Microsome. The following applies: 0.5 h.
A short description of data set [16]: Drug metabolism in human liver microsomes assessed as hydrolysis by measuring compound 19 formation at 1 uM measured after 30 mins in presence of NADPH by LC-MS/MS analysis. It counts as ADME, Microsome. The following applies: 0.5 h.

In the case of `Cc1cc(N2C(=O)NC(=O)C2C)cc(C)c1CCS(=O)(=O)N1CCC2(CC1)N=C(c1ccc(OC(F)(F)F)cc1)NC2=O` (centres undefined), the microsomal CLint at 1 µM in data set [1] came out at 71 µL/min/mg.

Turning to `CCC1(CC)C(=O)NC(=O)N1c1cc(C)c(CCS(=O)(=O)N2CCC3(CC2)N=C(c2ccc(OC(F)(F)F)cc2)NC3=O)c(C)c1`, in data set [2], it took 7.4 µM to reach the 20% level (EC20). Also, the EC50 in data set [3] was more than 100 µM. For the same compound, the microsomal CLint at 1 µM in data set [1] was 29 µL/min/mg.

For `CC[C@H](C)[C@H](NC(=O)[C@H](CCC(=O)O)NC(=O)[C@H](CO)NC(=O)[C@@H](NC(=O)[C@@H](N)CO)C(C)C)C(=O)N[C@@H](CCC(N)=O)C(=O)N[C@@H](CC(C)C)C(=O)N[C@@H](CCSC)C(=O)NC(Cc1cnc[nH]1)C(=O)N[C@@H](CC(N)=O)C(=O)N[C@@H](CC(C)C)C(=O)NCC(=O)N[C@@H](CCCCN)C(=O)N[C@@H](Cc1cnc[nH]1)C(=O)N[C@@H](CC(C)C)C(=O)N[C@@H](CC(N)=O)C(=O)N[C@@H](CO)C(=O)NC(CCSC)C(=O)N[C@@H](CCC(=O)O)C(=O)N[C@@H](CCCNC(=N)N)C(=O)N[C@H](C(=O)N[C@@H](CCC(=O)O)C(=O)N[C@@H](Cc1c[nH]c2ccccc12)C(=O)N[C@@H](CC(C)C)C(=O)N[C@@H](CCCNC(=N)N)C(=O)N[C@@H](CCCCN)C(=O)N[C@@H](CCCCN)C(=O)N[C@@H](CC(C)C)C(=O)N[C@@H](CCC(N)=O)C(=O)N[C@@H](CC(=O)O)C(=O)N[C@H](C(=O)N[C@@H](Cc1cnc[nH]1)C(=O)N[C@@H](CC(N)=O)C(=O)N[C@@H](Cc1ccccc1)C(=O)O)C(C)C)C(C)C` (some centres undefined), in [2], the 20% effect concentration (EC20) was 0.0006 µM. In addition, the outcome in the data set with Rattus norvegicus [4] was Active.

In data set [5], `Cc1cc(N2C(=O)NC(=O)C2(C)C)cc(C)c1CCS(=O)(=O)N1CCC2(CC1)N=C(c1ccc(OC(F)(F)F)cc1)NC2=O` [PCO-371] came in with an AUC(0-inf) of 1100 ng·h/mL. Moreover, the Activity entry was “Dose-dependent effect” with Rattus norvegicus [6], 8.8 to 10.4 mg/dL in the data set with Rattus norvegicus [7] and “Dose-dependent effect” with Rattus norvegicus [11]. Besides, the Time with Rattus norvegicus [8] and in the data set with Rattus norvegicus [10] was 10 h in each case. The compound also gave a clearance in data set [9] of 30.5 mL/min/kg. It took 1.1 µM to reach the 20% level in data set [2] (EC20). Moreover, the microsomal CLint at 1 µM in data set [1] was found to be 30 µL/min/mg. Further, the half-life in data set [12] is 1.3 h. The Vd in data set [13] stood at 3.04 L/kg.

Turning to `Cc1cc(N(C)C(N)=O)cc(C)c1CCS(=O)(=O)N1CCC2(CC1)N=C([C@H]1CC[C@H](C)CC1)NC2=O`, the Activity result in the data set on Rattus norvegicus [6] and with Rattus norvegicus [11] was “Dose-dependent effect” throughout. Also, in data set [14], the Drug metabolism entry was “Metabolite_Detected”.

For `CC[C@H]1CC[C@H](C2=NC3(CCN(S(=O)(=O)CCc4c(C)cc(N(C)C(N)=O)cc4C)CC3)C(=O)N2)CC1`, the EC20 in [2] came to 2.2 µM. Further, in data set [3], the EC50 is 33 µM. Moreover, in [1], the microsomal CLint at 1 µM is 170 µL/min/mg.

For the compound `Cc1cc(N(C)C(N)=O)cc(C)c1CCS(=O)(=O)N1CCC2(CC1)N=C(c1ccc(OC(F)(F)F)cc1)NC2=O`, in [1], the microsomal CLint at 1 µM stood at 48 µL/min/mg.

Consider `Cc1cc(N)cc(C)c1CCS(=O)(=O)N1CCC2(CC1)N=C([C@H]1CC[C@H](C)CC1)NC2=O`, for which the Drug metabolism result in data set [15] is recorded as “Metabolite_Detected”.

For `Cc1cc(N2C(=O)NC(=O)C23CCCC3)cc(C)c1CCS(=O)(=O)N1CCC2(CC1)N=C(c1ccc(OC(F)(F)F)cc1)NC2=O`, in data set [1], the microsomal CLint at 1 µM was 35 µL/min/mg.

In [2], `Cc1cc(N2CC(=O)NC2=O)cc(C)c1CCS(=O)(=O)N1CCC2(CC1)N=C(c1ccc(OC(F)(F)F)cc1)NC2=O` showed an EC20 of more than 100 µM. The EC50 in data set [3] was more than 100 µM.

Take `Cc1cc(N)cc(CO)c1C(O)CS(=O)(=O)N1CCC2(CC1)N=C([C@H]1CC[C@H](C)CC1)NC2=O` (some centres undefined): in data set [16], the Drug metabolism result is “Metabolite_Detected”.

Turning to `Cc1cc(N2C(=O)N(C)C(=O)C2(C)C)cc(C)c1CCS(=O)(=O)N1CCC2(CC1)N=C(c1ccc(OC(F)(F)F)cc1)NC2=O`, in data set [1], the microsomal CLint at 1 µM was determined as 330 µL/min/mg.

Compound `Cc1cc(N2C(=O)CNC2=O)cc(C)c1CCS(=O)(=O)N1CCC2(CC1)N=C([C@H]1CC[C@H](C)CC1)NC2=O` had an EC20 in data set [2] of 6 µM. For the same compound, the EC50 in data set [3] worked out at 32 µM. In addition, in data set [1], the microsomal CLint at 1 µM was determined as 53 µL/min/mg.

Take `Cc1cc(N2C(=O)CNC2=O)cc(C)c1CCS(=O)(=O)N1CCC2(CC1)N=C(c1ccc(OC(F)(F)F)cc1)NC2=O`: the microsomal CLint at 1 µM in data set [1] was 110 µL/min/mg.
